The test system of one data set is RAW264.7. The data set is described as follows: Inflammatory factors inhibition. The format is cell-based. Particulars: LPS-treated RAW264.7, 16 μg/mL, 12 h. The method, then:
Inflammatory factors inhibition by compounds. Cell line of RAW264.7 was cultured in DMEM medium with 10% FBS. After incubation at 37 ℃ 5% CO2 to log phase, the attached cells were washed with 1× PBS and added with 1 μg/mL of LPS. After incubation at 37 ℃ 5% CO2 for 30 min, 16 μg/mL of C218-0546 or STK848198 was added to each well. The cells were further cultured for 12h, and the cell precipitate was collected for qRT-PCR while the supernatant was collected for ELISA.
For gene expression determination. One milliliter of Trizol was added to lysis the cells. Then, the suspension was incubated with 200 μL chloroform for 3 min. After centrifugation at 12000 rpm 4℃ for 15 min, the aqueous phase was removed to RNase-free tubes, and added with equal volume of isopropanol. After centrifugation at 12000 rpm 4℃, the RNA precipitation was collected and wash with 75% ethanol. […] Absorbance at 260nm and 280 nm was detected to determine the RNA concentration and purity. cDNA was synthesized with HiFiScript cDNA Synthesis Kit (CoWin Biosciences, Beijing, China) according to the manufacture’s specification, and UltraSYBR Mixture (2×, CoWin Biosciences, Beijing, China) was used for qPCR determination.
ELISA kit (Proteintech, Wuhan, China) was used for cytokines production quantification. […] Then, 100 μL substrate was added to each well and the absorbance at 450 nm was determined.

The subject of a further data set is Human RBCs. The data set is described as follows: Red blood cell (RBC) lysis assay. Particulars: 1 h. Format: cell-based. The method, then:
Red blood cell (RBC) lysis assay. Human RBCs (Hemo Pharmaceutical and Biological Co.) were suspended in 1× PBS and diluted to a final concentration of 4% (vol/vol). The RBCs suspension was then incubated with serially diluted compounds at 37°C for 1h. Then, the supernatant was collected by centrifugation and the absorbance at 570 nm […]) was measured. Triton X-100 (0.1%, vol/vol) and DMSO (1%, vol/vol) were served as positive and negative controls, respectively^16.

In the next data set the target is FtsH (Staphylococcus aureus, UniProt Q2G0R0). Description: Surface plasmon resonance (SPR). Format: binding, S. aureus ATCC 43300. Particulars: 25 °C. The procedure:
Surface plasmon resonance (SPR). To detect the affinity between the small molecular compounds and FtsH, SPR analyses were performed on a multiple flow cell Biacore T200 instrument (Cytiva, the United States). Briefly, FtsH (35.5 µg/mL in 10 mM sodium acetate buffer, pH= 4.0) was covalently immobilized on a dextran matrix CM5 sensor chip surface in three different flow cells. The excessive active groups on the dextran matrix were blocked using 1 M ethanolamine at the velocity of 10 μL/min for 15 min. The uncoated reference flow cell on the fourth flow cell was prepared on the dextran matrix treated as described above but without any ligand. 1×PBS (pH 7.4) containing 2 mM KH2PO4, 137 mM NaCl, 10 mM Na2HPO4, 2.7 mM KCl and 5%DMSO was used as the running buffer. In the running buffer, a 2-fold serially diluted of compounds was passed over the ligand at a flow rate of 30 µL/min. The sensorgrams were recorded at 25 °C. The response units at the steady state were fitted to the Langmuir equation to yield the Kd values^35.
Protein synthesis and purification. The primers in this study were designed according to the sequence of S. aureus ATCC 43300 genome published on NCBI. […] Finally, the target protein was detected by SDS-PAGE. […]
(In general: SPR reads the build-up and loss of mass on a sensor chip optically.)

The next data set relates to HSF. Description: Cytotoxicity by CCK-8. Format: cell-based, human. The procedure: Cytotoxicity assessment by Cell Counting Kit-8 (CCK-8). The CCK-8 (DojinDo, Japan) was used to detect the cytotoxicity of compounds on human cell lines (LO2, HepG2, and HSF). Briefly, log phased cells were diluted with its optimal medium to ~4000 cells/well in a 96-well plate. After incubation at 37 ℃ with 5% CO2 for 24h, the unadhered cells were removed by PBS washing, and serially diluted compounds were added to each well for 24h incubation at 37 ℃ with 5% CO2. Then, 10 µL of CCK-8 was added to each well and the absorbance at 450 nm (A450nm) was recorded after 3 h of incubation^17.

Another data set deals with WP2uvrA (pKM101). Description: Ames test. Format: cell-based, E. coli. The method, then:
Ames test. Genotoxicity of the compounds was determined by Ames Kit (IPHASE, Beijing, China) containing Salmonella typhimurium (TA97a, TA98, TA100, and TA1535) and E. coli WP2 uvrA (pKM101). Diclofenac and 2-aminofluorene were used as positive controls for TA97a and TA98. Methyl methanesulfonate and 2-aminofluorene were used as positive controls for TA100. Methyl methanesulfonate and 2-aminoanthracene were used as positive controls for WP2 uvrA (pKM101). NaN3 and 2-aminoanthracene were used as positive controls for TA1535. The bottom and top layer culture medium, and S9 mixed solution were prepared according to the manufacturer’s instructions. After incubation at 37℃ for 48h, the colonies were counted.
A general note: The Ames test detects mutagens through reverse mutation in bacteria.

Experimental findings from paper PMC11707430, “Novel antibiotics against Staphylococcus aureus without detectable resistance by targeting proton motive force and FtsH” (MedComm, 2025) are described below.

As a reminder, the Kd is the equilibrium constant for the complex coming apart. Read a high Kd as weaker binding.

Chain of FtsH (Q2G0R0 entry or part of it): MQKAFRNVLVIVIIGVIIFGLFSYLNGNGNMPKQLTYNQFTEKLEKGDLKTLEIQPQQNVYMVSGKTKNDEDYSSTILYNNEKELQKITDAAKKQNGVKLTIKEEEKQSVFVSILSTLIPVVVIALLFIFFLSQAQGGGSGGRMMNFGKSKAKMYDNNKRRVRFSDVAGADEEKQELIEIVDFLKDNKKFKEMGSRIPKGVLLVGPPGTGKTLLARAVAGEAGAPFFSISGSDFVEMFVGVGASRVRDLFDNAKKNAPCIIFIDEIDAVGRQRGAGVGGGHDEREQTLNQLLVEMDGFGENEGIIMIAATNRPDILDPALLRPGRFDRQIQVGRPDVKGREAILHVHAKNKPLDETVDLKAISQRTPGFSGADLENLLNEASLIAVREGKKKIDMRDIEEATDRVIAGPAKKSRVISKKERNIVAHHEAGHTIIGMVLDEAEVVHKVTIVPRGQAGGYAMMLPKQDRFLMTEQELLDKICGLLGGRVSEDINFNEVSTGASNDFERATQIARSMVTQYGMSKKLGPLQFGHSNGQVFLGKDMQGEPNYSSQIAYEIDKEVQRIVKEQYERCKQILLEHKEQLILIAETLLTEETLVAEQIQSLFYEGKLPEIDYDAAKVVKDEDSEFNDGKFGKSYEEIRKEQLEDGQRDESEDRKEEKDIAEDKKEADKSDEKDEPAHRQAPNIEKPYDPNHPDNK

As to `Cc1nc2c(-c3ccc(Cl)cc3)cnn2c(O)c1Cc1ccccc1` [STK848198], in the data set on RAW264.7, the “inflammatory cytokines production (IL-1β, IL-6, TNFα decreased, IL-10 enhanced)” value is “inhibit inflammatory progress”. Moreover, in the data set with Human RBCs, the hemolysis activity entry is given as “No hemolysis activity”. Moreover, at FtsH, the equilibrium dissociation constant (Kd) is 31 µM. In the data set with HSF, the cytotoxicity entry is on record as “no toxicity”. The “CFU(x±SD)” value turned out to be 29 ±4 CFU with WP2uvrA (pKM101) (+S9, 25 μg/well); 26 ±4 CFU in the data set on WP2uvrA (pKM101) (+S9, 50 μg/well); 26 ±3 CFU in the data set on WP2uvrA (pKM101) (+S9, 100 μg/well); 29 ±3 CFU with WP2uvrA (pKM101) (+S9, 200 μg/well); 28 ±3 CFU with WP2uvrA (pKM101) (+S9, 400 μg/well); 22±2 CFU in the data set with WP2uvrA (pKM101) (-S9, 25 μg/well). The “CFU(x±SD)” value was 23±4 CFU in the data set on WP2uvrA (pKM101) (-S9, 50 μg/well); 21±1 CFU in the data set on WP2uvrA (pKM101) (-S9, 100 μg/well); 24±3 CFU in the data set with WP2uvrA (pKM101) (-S9, 200 μg/well); 23±1 CFU in the data set with WP2uvrA (pKM101) (-S9, 400 μg/well). Also, the “Fold Change” value with WP2uvrA (pKM101) (+S9, 25 μg/well) came out at 0.9; with WP2uvrA (pKM101) (+S9, 50 μg/well), 0.8; in the data set on WP2uvrA (pKM101) (+S9, 100 μg/well), 0.8; with WP2uvrA (pKM101) (+S9, 200 μg/well) it was 0.9; with WP2uvrA (pKM101) (+S9, 400 μg/well), 0.9; in the data set with WP2uvrA (pKM101) (-S9, 25 μg/well), 1. The “Fold Change” value with WP2uvrA (pKM101) (-S9, 50 μg/well) was 1; in the data set on WP2uvrA (pKM101) (-S9, 100 μg/well), 0.9; in the data set on WP2uvrA (pKM101) (-S9, 200 μg/well), 1; in the data set on WP2uvrA (pKM101) (-S9, 400 μg/well), 1.
